Results on 5 molecules are retold here after patent publication US11649228B2, “Zinc indicators for cellular imaging” (The Board of Regents of the University of Texas System, priority 2018, dated 2023).

Read-outs that look alike come from different tables or passages of the source.

For series [1] the following is noted: Table 2, previously reported sensors, cited from earlier work; for Kd: read-out: Kd(Zn^2+).
Series [2] is described as follows: Zn^2+ titration of ZIGIRs by fluorescence emission (Hill plot). In kind it is binding. As to the method: (§1) UV-Vis spectra were recorded in a 1-cm path quartz cell on a Shimadzu 2401 PC spectrometer. Fluorescence excitation and emission spectra were recorded on a Fluorolog 3 spectrometer (Jobin-Yvon Horiba, Edison, N.J.). Zinc titration was performed by adding ZIGIRs (0.5 μM final concentration) to buffered Zn^2+ solutions containing 100 mM HEPES (pH 7.4). Nitrilotriacetic acid (NTA, 10 mM) and varying concentrations of ZnSO4 (0-9 mM) were mixed to reach free Zn^2+ concentrations between 0.1 nM and 40 nM (Li et al., 2011). Zn^2+ concentrations above 40 nM were controlled by iminodiacetate (IDA, 10 mM) and varying amounts of ZnSO4 (0-9.7 mM) in 100 mM HEPES (pH 7.4; Sasaki et al., 2011). To determine Zn^2+ binding dissociation constants (Kd(Zn^2+)), the Zn^2+ titration data were fitted to the least square exponential equation (Prism 7). Fluorescence quantum yields of ZIGIRs at pH 7.5 were determined using rhodamine 6G as the reference (Φfl=0.94 in MeOH; Magde et al., 2002). An example in shown FIGS. 11A0B. To examine the pH sensitivity of ZIGIRs, the fluorescence emission spectra was recorded from pH 3-9.4 in either nominally Zn^2+-free solutions containing 5 mM iminodiacetate or in 25 μM ZnSO4 solutions. The pH was controlled with 10 mM pH buffers including chloroacetic acid (pH 3.1), acetate (pH 4.1 and 5.0), 2-morpholinoethanesulfonic acid (MES, pH 6.14), HEPES (pH 7.5) and N-cyclohexyl-2-aminoethanesulfonic acid (CHES, pH 9.4).

Series [3] in a line: Photochemical characterization of ZIGIRs in vitro (absorption, emission, quantum yield). It counts as physicochemical. As to conditions: for ε (extinction coefficient): in M-1·cm-1 (unit assumed); for ϕfl × ε (fluorescence brightness): in M^-1 cm^-1 (unit assumed); for fluorescence quantum yield: Zn^2+-bound state. As to the method: as §1
Series [4] is described as follows: pH sensitivity of ZIGIR fluorescence. It counts as physicochemical. As to conditions: same Zn^2+ level. The protocol:
as §1, with “The pH was controlled with 10 mM pH buffers including chloroacetic acid (pH 3.1), acetate (pH 4.1 and 5.0), 2-morpholinoethanesulfonic acid (MES, pH 6.14), HEPES (pH 7.5) and N-cyclohexyl-2-aminoethanesulfonic acid (CHES, pH 9.4).” left out

A short description of series [5]: Metal ion selectivity of fluorescence response. In kind it is physicochemical. The note with it: 1 μM sensor, 10 μM TPEN; against Na^+, K^+, Ca^2+, Mg^2+, Fe^2+, Ni^2+, Co^2+, Cu^2+, Mn^2+. As to the method:
To study the metal selectivity, the fluorescence of ZIGIR-1 (1 μM) or ZIGIR-2 (1 μM) was measured in the presence of 10 μM TPEN and an excess of metal ion including 1 mM KCl, 1 mM NaCl, 1 mM CaSO4, 1 mM MgSO4, 15 μM MnSO4, 15 μM FeSO4, 15 μM NiSO4, 15 μM CoCl2, 15 μM CuSO4, 15 μM CdSO4 or 15 μM ZnSO4. The emission intensity was normalized to that of 15 μM ZnSO4 (100%).

As a reminder, the Kd is the concentration at which binding is half-saturated.

For `COc1ccc(N(CC(=O)O)CC(=O)O)c(OCCOc2cc(-c3c4cc(F)c(=O)cc-4oc4cc(O)c(F)cc34)ccc2NCC(=O)O)c1` [FluoZin-3], in series [1], the “Zn^2+ response (fold change)” value is listed as above 100× and the Kd is 15 nM.

In the case of `Cc1cc2c(c(CN(Cc3ccccn3)Cc3cnccn3)c1)OC1(CC2)C(C)c2ccccc2N1C` (centres unmarked) [SpiroZin2], in series [1], the “Zn^2+ response (fold change)” value was 8× and the Kd is 3.6 nM.

Take `CN=c1ccc2c(-c3ccc(NCCN(CCc4ccccn4)Cc4ccccn4)cc3C(=O)O)c3ccc(NC)cc3oc-2c1` [ZIGIR-1]: in series [2], the “FC (fold change in fluorescence brightness ϕfl×ε from Zn^2+-free to Zn^2+-bound state)” value amounted to 50 and the “fluorescence enhancement upon Zn^2+ binding” value was determined as 50 fold. Further, the Kd in series [2] (100 mM HEPES pH 7.4) turned out to be 290 nM. In series [3], the absorption maximum is reported as around 520 nm, the “bathochromic shift in absorption maximum from Zn^2+-free to Zn^2+-bound state” value stood at 4 nm and the fluorescence quantum yield was found to be 30%. Also, in series [3] (Zn^2+ bound), the “λabd^max” value worked out at 521 nm, the “λem^max” value came out at 543 nm, the “ϕfl (fluorescence quantum yield)” value is reported as 0.30 and the “ε (extinction coefficient)” value is on record as 112,000. Further, the “ϕfl × ε (fluorescence brightness)” value in series [3] (Zn^2+ bound) is on record as 33,600. In addition, in series [3] (Zn^2+ free), the “λabd^max” value is 517 nm, the “λem^max” value came to 547 nm, the “ϕfl (fluorescence quantum yield)” value was determined as 0.008 and the “ε (extinction coefficient)” value is on record as 85,200. The “ϕfl × ε (fluorescence brightness)” value in series [3] (Zn^2+ free) was 682. The “fluorescence signal at pH 7.5 versus pH 5.0” value in series [4] is on record as “essentially the same fluorescence signal”. Also, the “selectivity of fluorescence response for Zn^2+” value in series [5] was “selective for Zn^2+”.

With `CCN(CC)c1ccc2c(-c3ccc(NCCN(CCc4ccccn4)Cc4ccccn4)cc3C(=O)[O-])c3ccc(=[N+](CC)CC)cc-3oc2c1` [ZIGIR-3], in series [3], the absorption maximum result is reported as “around 555 nm”, the emission maximum is around 580 nm and the fluorescence quantum yield is recorded as 18%.

Take `COc1cc(O)c(-c2nc3c(CNCc4ccccn4)cccc3o2)cc1OC` [ZINbo-5]: the Kd in series [1] was 2.2 nM.
